# In patent publication US10792255B2, “Reconstituted apolipoprotein B lipoparticle, a preparation method and uses thereof” (National Chiao Tung University, priority 2013, dated 2020):
# How the values were obtained:
# mice = details: long-term feeding; cited from earlier work
# A549 cells = test: Functional test of M4N@rABL (cell viability, trypan blue); assay type: cell-based; details: 100 μM M4N (20 μg/ml rABL), 24 hrs treatment then 48 hrs culture
# From the text: After removing the medium, the cells were washed twice with PBS and cultured with serum-containing medium for 48 hrs. The cell viability was observed by a trypan blue staining.
structure (smiles),measurement,setting,value
"COc1ccc(C[C@@H](C)[C@@H](C)Cc2ccc(OC)c(OC)c2)cc1OC [M4N, tetra-O-methyl nordihydroguaiaretic acid]",weight changes or mortality,mice,not found any obvious weight changes or mortality
same,cell viability,A549 cells,40%
